Drawing on patent publication US8394969B2, “Cyclic benzimidazole derivatives useful as anti-diabetic agents” (Merck Sharp & Dohme Corp., priority 2008, dated 2013), this text covers Emax and EC50 for 34 compounds.

The target in this assay is recombinant human AMPK complex 1 (containing α1β1γ1) (Homo sapiens, UniProt Q13131+Q9Y478). The assay can be described thus: […] (in vitro AMPK activation assay). It counts as biochemical. The conditions noted are these: recombinant human AMPK complex 1 (α1β1γ1); for Emax: basal activity subtracted, read-out: % Maximum AMP Activation of human AMPK Complex 1; for pEC50: read-out: EC50.
recombinant human AMPK complex 1 (containing α1β1γ1), sequence (Q13131 whole entry): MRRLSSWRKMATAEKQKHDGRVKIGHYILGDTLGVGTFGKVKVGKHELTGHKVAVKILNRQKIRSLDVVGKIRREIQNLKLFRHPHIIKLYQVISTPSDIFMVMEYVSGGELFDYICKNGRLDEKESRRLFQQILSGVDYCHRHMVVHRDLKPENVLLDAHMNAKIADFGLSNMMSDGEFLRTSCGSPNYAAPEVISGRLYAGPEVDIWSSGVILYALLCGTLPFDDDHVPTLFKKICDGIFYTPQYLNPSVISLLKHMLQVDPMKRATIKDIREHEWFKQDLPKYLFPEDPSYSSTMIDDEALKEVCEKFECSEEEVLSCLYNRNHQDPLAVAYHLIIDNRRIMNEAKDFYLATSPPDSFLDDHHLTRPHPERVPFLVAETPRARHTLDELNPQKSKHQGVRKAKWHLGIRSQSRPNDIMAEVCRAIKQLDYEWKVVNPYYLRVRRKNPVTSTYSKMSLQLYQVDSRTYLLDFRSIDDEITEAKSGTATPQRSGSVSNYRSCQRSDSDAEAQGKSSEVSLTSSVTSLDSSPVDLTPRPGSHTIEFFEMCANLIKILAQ
recombinant human AMPK complex 1 (containing α1β1γ1), sequence (Q9Y478 whole entry): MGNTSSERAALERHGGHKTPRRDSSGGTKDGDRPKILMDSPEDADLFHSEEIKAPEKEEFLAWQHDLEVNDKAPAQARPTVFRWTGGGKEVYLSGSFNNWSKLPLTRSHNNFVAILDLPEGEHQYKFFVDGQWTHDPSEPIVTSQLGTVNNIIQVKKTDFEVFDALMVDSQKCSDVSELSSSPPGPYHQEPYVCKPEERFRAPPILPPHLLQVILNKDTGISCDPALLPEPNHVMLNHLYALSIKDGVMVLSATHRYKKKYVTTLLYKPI
recombinant human AMPK complex 1 (containing α1β1γ1), sequence (P54619 whole entry partner): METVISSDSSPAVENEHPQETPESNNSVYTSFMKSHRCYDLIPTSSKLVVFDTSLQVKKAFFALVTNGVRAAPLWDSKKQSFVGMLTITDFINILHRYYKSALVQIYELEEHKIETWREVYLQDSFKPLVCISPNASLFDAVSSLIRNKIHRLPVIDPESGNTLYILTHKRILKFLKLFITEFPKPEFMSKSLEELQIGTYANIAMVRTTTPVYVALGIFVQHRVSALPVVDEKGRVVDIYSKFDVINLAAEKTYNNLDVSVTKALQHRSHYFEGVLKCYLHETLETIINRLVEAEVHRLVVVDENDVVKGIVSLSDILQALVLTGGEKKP

Broadly, the pEC50 is the negative decadic logarithm of the EC50, by convention in mol/L.

pEC50: −log10 of the molar value. Where a name gives a salt, the structure may show the parent alone. A value given as a limit tells only on which side of the number the result lay.

As to `Cc1ccc(Oc2nc3cc(-c4ccc5[nH]ncc5c4)c(Cl)cc3[nH]2)cc1C(=O)O` [Example 153, 5-[6-Chloro-5-(1H-indazol-5-yl)-1H-benzoimidazol-2-yloxy]-2-methyl-benzoic acid], the Emax was above 80%.

On to `Cc1ccc(Oc2nc3cc(C#CC(C)(C)O)c(Cl)cc3[nH]2)cc1C(=O)O` [Example 154, 5-[6-Chloro-5-(3-hydroxy-3-methyl-but-1-ynyl)-1H-benzoimidazol-2-yloxy]-2-methyl-benzoic acid], for which the Emax was above 80%.

As for `Cc1ccc(Oc2nc3cc(-c4ccc(C(C)O)cc4)c(Cl)cc3[nH]2)cc1C(=O)O` (stereo not shown) [Example 156, 5-{6-Chloro-5-[4-(1-hydroxy-ethyl)-phenyl]-1H-benzoimidazol-2-yloxy}-2-methyl-benzoic acid], the Emax was above 80%.

For the compound `CC(=O)c1ccc(-c2cc3nc(Oc4ccc(C)c(C(=O)O)c4)[nH]c3cc2Cl)cc1` [Example 157, 5-{5-(4-Acetyl-phenyl)-6-chloro-1H-benzoimidazol-2-yloxy]-2-methyl-benzoic acid], the Emax was above 80%.

For `Cc1ccc(Oc2nc3cc(C4=CCN(c5ncccn5)CC4)c(Cl)cc3[nH]2)cc1C(=O)O` [Example 158, 2-(3-carboxy-4-methylphenoxy)-6-chloro-5-(1-pyrimidin-2-yl-1,2,3,6-tetrahydropyridin-4-yl)-1H-3,1-benzimidazol-3-ium trifluoroacetate], the Emax was above 80%.

As for `Cc1ccc(Oc2nc3cc(-c4cnn(CC(C)C)c4)c(Cl)cc3[nH]2)cc1C(=O)O` [Example 159, 5-[6-Chloro-5-(1-isobutyl-1H-pyrazol-4-yl)-1H-benzoimidazol-2-yloxy]-2-methyl-benzoic acid], the Emax was above 80%.

`Cc1ccc(Oc2nc3cc(-c4cn[nH]c4)c(Cl)cc3[nH]2)cc1C(=O)O` [Example 160, 5-[6-Chloro-5-(1H-pyrazol-4-yl)-1H-benzoimidazol-2-yloxy]-2-methyl-benzoic acid]: the Emax was above 80%.

Regarding `Cc1ccc(Oc2nc3cc(-c4ccc(-c5ccc[n+]([O-])c5)cc4)c(Cl)cc3[nH]2)cc1C(=O)O` [Example 161, 5-{6-Chloro-5-[4-(1-oxy-pyridin-3-yl)-phenyl]-1H-benzoimidazol-2-yloxy}-2-methyl-benzoic acid], the Emax was above 80%.

As for `Cc1ccc(Oc2nc3cc(-c4ccc(-c5ccc(=O)n(C(F)F)c5)cc4)c(Cl)cc3[nH]2)cc1C(=O)O` [Example 162, 5-{6-Chloro-5-[4-(1-difluoromethyl-6-oxo-1,6-dihydro-pyridin-3-yl)-phenyl]1H-benzoimidazol-2-yloxy}-2-methyl-benzoic acid], the Emax is above 80%.

Turning to `COC(=O)c1cc(Oc2nc3cc(-c4ccc(-c5ccc(=O)n(C(F)F)c5)cc4)c(Cl)cc3[nH]2)ccc1C` [Example 163, 5-{6-Chloro-5-[4-(1-difluoromethyl-6-oxo-1,6-dihydro-pyridin-3-yl)-phenyl]-1H-benzoimidazol-2-yloxy}-2-methyl-benzoic acid methyl ester], the Emax was above 80%.

For the compound `COC(=O)c1cc(Oc2nc3cc(-c4ccc(-c5ccccn5)cc4)c(Cl)cc3[nH]2)ccc1C` [Example 165, 5-[6-Chloro-5-(4-pyridin-2-yl-phenyl)-1H-benzoimidazol-2-yloxy]-2-methyl-benzoic acid methyl ester], the Emax is above 80%.

With `Cc1ccc(Oc2nc3cc(-c4ccc(-c5ccccn5)cc4)c(Cl)cc3[nH]2)cc1C(=O)O` [Example 166, 5-[6-Chloro-5-(4-pyridin-2-yl-phenyl)-1H-benzoimidazol-2-yloxy]-2-methyl-benzoic acid], the Emax was above 80%.

Regarding `COC(=O)c1cc(Oc2nc3cc(-c4ccc(-c5ccncc5)cc4)c(Cl)cc3[nH]2)ccc1C` [Example 167, 5-[6-Chloro-5-(4-pyridin-4-yl-phenyl)-1H-benzoimidazol-2-yloxy]-2-methyl-benzoic acid methyl ester], the Emax is above 80%.

`Cc1ccc(Oc2nc3cc(-c4ccc(-c5ccncc5)cc4)c(Cl)cc3[nH]2)cc1C(=O)O` [Example 168]: the pEC50 is 8.30.

Regarding `Cc1ccc(Oc2nc3cc(-c4ccc(-c5cccnc5)cc4)c(Cl)cc3[nH]2)cc1C(=O)O` [Example 169, 5-[6-Chloro-5-(4-pyridin-3-yl-phenyl)-1H-benzoimidazol-2-yloxy]-2-methyl-benzoic acid], the Emax was above 80%.

In the case of `COC(=O)c1cc(Oc2nc3cc(-c4ccc(-c5ccc(=O)n(C)c5)cc4)c(Cl)cc3[nH]2)ccc1C` [Example 170, 5-{6-Chloro-5-[4-(1-methyl-6-oxo-1,6-dihydro-pyridin-3-yl)-pheny1]-1H-benzoimidazol-2-yloxy}-2-methyl-benzoic acid methyl ester], the Emax is above 80%.

Turning to `COC(=O)c1cc(Oc2nc3cc(-c4ccc(-c5cccnc5)cc4)c(Cl)cc3[nH]2)ccc1C` [Example 171, 5-[6-Chloro-5-(4-pyridin-3-yl-phenyl)-1H-benzoimidazol-2-yloxy]-2-methyl-benzoic acid methyl ester], the Emax is above 80%.

Consider `COc1ccc(-c2ccc(-c3cc4nc(Oc5ccc(C)c(C(=O)O)c5)[nH]c4cc3Cl)cc2)cc1` [Example 172, 5-[6-Chloro-5-(4′-methoxy-biphenyl-4-yl)-1H-benzoimidazol-2-yloxy]-2-methyl-benzoic acid], for which the Emax is above 80%.

As to `Cc1ccc(Oc2nc3cc(-c4ccc(N5CCOCC5)nc4)c(Cl)cc3[nH]2)cc1C(=O)O` [Example 173, 5-[6-Chloro-5-(6-morpholin-4-yl-pyridin-3-yl)-1H-benzoimidazol-2-yloxy]-2-methyl-benzoic acid], the Emax is above 80%.

For the compound `Cc1ccc(Oc2nc3cc(-c4ccc(N5CCNCC5)nc4)c(Cl)cc3[nH]2)cc1C(=O)O` [Example 174, 5-[6-Chloro-5-(6-piperazin-1-yl-pyridin-3-yl)-1H-benzoimidazol-2-yloxy]-2-methyl-benzoic acid], the Emax is above 80%.

With `Cc1ccc(Oc2nc3cc(-c4ccc(N5CCN(C(=O)OC(C)(C)C)CC5)nc4)c(Cl)cc3[nH]2)cc1C(=O)O` [Example 175, 4-{5-[2-(3-Carboxy-4-methyl-phenoxy)-6-chloro-1H-benzoimidazol-5-yl]-pyridin-2-yl}-piperazine-1-carboxylic acid tert-butyl ester], the Emax was above 80%.

In the case of `Cc1ccc(Oc2nc3cc(-c4ccc(-c5nnn[nH]5)cc4)c(Cl)cc3[nH]2)cc1C(=O)O` [Example 176, 5-{6-Chloro-5-[4-(1H-tetrazol-5-yl)-phenyl]-1H-benzoimidazol-2-yloxy}-2-methyl-benzoic acid], the Emax was above 80%.

In the case of `Cc1ccc(Oc2nc3cc(-c4ccc(/C(N)=N/O)cc4)c(Cl)cc3[nH]2)cc1C(=O)O` [Example 177, 5-{6-Chloro-5-[4-(N-hydroxycarbamimidoyl)-phenyl]-1H-benzoimidazol-2-yloxy}-2-methyl-benzoic acid], the Emax was above 80%.

As to `Cc1ccc(Oc2nc3cc(-c4ccc(N5CCNCC5)cc4)c(Cl)cc3[nH]2)cc1C(=O)O` [Example 178, 5-[6-Chloro-5-(4-piperazin-1-yl-phenyl)-1H-benzoimidazol-2-yloxy]-2-methyl-benzoic acid], the Emax is above 80%.

Take `Cc1ccc(Oc2nc3cc(-c4ccc(N5CCOCC5)cc4)c(Cl)cc3[nH]2)cc1C(=O)O` [Example 179, 5-[6-Chloro-5-(4-morpholin-4-yl-phenyl)-1H-benzoimidazol-2-yloxy]-2-methyl-benzoic acid]: the Emax was above 80%.

On to `Cc1ccc(Oc2nc3cc(-c4ccc(C#N)cc4)c(Cl)cc3[nH]2)cc1C(=O)O` [Example 180, 5-[6-Chloro-5-(4-cyano-phenyl)-1H-benzoimidazol-2-yloxy]-2-methyl-benzoic acid], for which the Emax was above 80%.

In the case of `Cc1ccc(Oc2nc3cc(C#Cc4ccc(C(=O)O)cc4)c(Cl)cc3[nH]2)cc1C(=O)O` [Example 181, 5-[5-(4-Carboxy-phenylethynyl)-6-chloro-1H-benzoimidazol-2-yloxy]-2-methyl-benzoic acid], the Emax was above 80%.

`Cc1ccc(Oc2nc3cc(-c4ccc(C(C)(C)O)cc4)c(Cl)cc3[nH]2)cc1C(=O)O` [Example 183, 5-({6-chloro-5-[4-(1-hydroxy-1-methylethyl)phenyl]-1H-benzimidazol-2-yl}oxy)-2-methylbenzoic acid]: the pEC50 was 7.80.

In the case of `Cc1ccc(Oc2nc3cc(-c4ccc(-c5ccc(C(=O)O)cc5)cc4)c(F)cc3[nH]2)cc1C(=O)O` [Example 184, 4′-[2-3-carboxy-4-methylphenoxy-6-fluoro-1H-benzimidazol-5-yl]biphenyl-4-carboxylic acid], the pEC50 was 8.10.

Turning to `Cc1ccc(Oc2nc3cc(-c4ccc(-c5cccc(F)c5)cc4)c(Cl)cc3[nH]2)cc1C(=O)O` [Example 185, 5-{[6-chloro-5-(3′-fluorobiphenyl-4-yl)-1H-benzimidazol-2-yl]oxy}-2-methylbenzoic acid], the Emax is above 80%.

In the case of `Cc1ccc(Oc2nc3cc(-c4ccc(-c5cccc(Cl)c5)cc4)c(Cl)cc3[nH]2)cc1C(=O)O` [Example 186, 5-{[6-chloro-5-(3′-chlorobiphenyl-4-yl)-1H-benzimidazol-2-yl]oxy}-2-methylbenzoic acid], the Emax is above 80%.

On to `COc1cccc(-c2ccc(-c3cc4nc(Oc5ccc(C)c(C(=O)O)c5)[nH]c4cc3Cl)cc2)c1` [Example 187, 5-{[6-chloro-5-(3′-methoxybiphenyl-4-yl)-1H-benzimidazol-2-yl]oxy}-2-methylbenzoic acid], for which the Emax is above 80%.

Take `Cc1ccc(Oc2nc3cc(-c4ccc(-c5ccc(O)nc5)cc4)c(Cl)cc3[nH]2)cc1C(=O)O` [Example 188, 5-({6-chloro-5-[4-(6-hydroxypyridin-3-yl)phenyl]-1H-benzimidazol-2-yl}oxy)-2-methylbenzoic acid]: the Emax is above 80%.

Consider `Cc1ccc(Oc2nc3cc(-c4ccc(-c5ccccc5Cl)cc4)c(Cl)cc3[nH]2)cc1C(=O)O` [Example 191, 5-{[6-chloro-5-(2′-chlorobiphenyl-4-yl)-1H-benzimidazol-2-yl]oxy}-2-methylbenzoic acid], for which the Emax was above 80%.
